From a melting point compilation (Tetko et al.)

Compared with `O=S(=O)(Nc1c(F)c(F)cc(F)c1F)C(F)(F)F`, `Oc1c(F)c(F)c(F)c2c(F)c(F)c(F)c(F)c12` is higher in melting point: 95 °C for the first, 103 to 107 °C for the second.

Compared with `CC(C)(C)c1cc(C(=S)NC2CCCCC2)cc(C(C)(C)C)c1O`, `CN=C(N)c1cc(C(C)(C)C)c(O)c(C(C)(C)C)c1` is higher in melting point: 217 to 218 °C for the first, 280 to 281 °C for the second.

Compared with `CC(=NOCc1cccc(C(=O)O)c1)c1ccc(Cl)cc1`, `CC(=O)c1ccc(C#Cc2ccccc2)cc1` is lower in melting point: 154 to 157 °C for the first, 101 °C for the second.

Compared with `Cc1ccc(NC(N)=S)cc1`, `Fc1ccc(NC(=S)Nc2cc(Cl)cc(Cl)c2)cc1` is lower in melting point: 186 to 188 °C for the first, 164 °C for the second.

Compared with `CCOC(=O)C1CCN(Cc2cccc(N)c2)CC1`, `CS(=O)(=O)c1ccc2c(c1)N(CCCN1CCC(C(N)=O)CC1)c1ccccc1S2` is higher in melting point: 42 to 46 °C for the first, 170 °C for the second.

Compared with `Nc1nc[nH]c(=O)n1`, `CC(C)(C)c1cc(C(F)(F)F)nc(N)n1` is lower in melting point: 300 °C for the first, 48 to 50 °C for the second.

Compared with `Cc1ccc(-c2ccc(S(=O)(=O)Cl)cc2)cc1`, `Cc1ccc(Oc2ccc(C)cc2)cc1` is lower in melting point: 107 to 108 °C for the first, 51 °C for the second.

Compared with `O=C1Nc2ccc(Cl)cc2C(c2ccccc2Cl)=NC1O` (stereo not drawn), `O=C(O)c1csc(-c2cccc(Cl)c2Cl)n1` is higher in melting point: 166 °C for the first, 233 to 234 °C for the second.

First: Cc1c(C#N)c(N)n(Cc2c(Cl)cccc2Cl)c1C
Second: N#CCS(=O)(=O)c1ccc(Cl)cc1Cl
The melting point of the first is higher: 194 to 196 °C for the first, 118 to 121 °C for the second.

Compared with `Cn1nc(C(F)(F)F)cc1-c1ccc(S(=O)(=O)Cl)s1`, `COc1ccc([N+](=O)[O-])cc1C(F)(F)F` is higher in melting point: 68 to 70 °C for the first, 79 to 81 °C for the second.

First: c1cc(N2CCCC2)ccn1
Second: O=C(O)c1ccnc(N2CCCC2)c1
The melting point of the first is lower: 56 °C for the first, 211 to 212 °C for the second.

First: COc1ccccc1OC(C)=O
Second: COc1ccc(C(C)=O)cc1O
The melting point of the first is lower: 31.5 °C for the first, 89.5 °C for the second.

Compared with `COc1ccc(-c2ocnc2C(=O)Cl)cc1`, `COc1ccc(-c2nnc3n2NCS3)cc1` is higher in melting point: 97 to 99 °C for the first, 200 °C for the second.

Compared with `COCCN(C(=O)CCl)c1c(C)cccc1C`, `Cc1cccc(Br)c1[N+](=O)[O-]` is lower in melting point: 46.3 °C for the first, 26 to 30 °C for the second.

Compared with `CCCCCCCCCCCCCCCC(=O)NCCO`, `CCCCCCCCCCOC(=O)CCCCCCCCC` is lower in melting point: 98.5 °C for the first, 9.7 °C for the second.

First: S=C=Nc1c(Br)cc(Br)cc1Br
Second: COc1c(Br)cc(Br)cc1Br
The melting point of the first is higher: 106 to 110 °C for the first, 88 °C for the second.

First: O=C1CC2C(CC(OC(=O)c3ccccc3)C2COC(c2ccccc2)(c2ccccc2)c2ccccc2)O1 (single isomer, unassigned; (-))
Second: Cc1ccc(-c2onc(C(=O)c3ccc4ccccc4c3)c2S(=O)(=O)c2ccccc2)cc1
The melting point of the first is higher: 183 to 185 °C for the first, 108 °C for the second.

First: CC(=O)OC1CCC2(C)C(CC(=O)C3C2CCC2(C)C(OC(=O)c4ccccc4)CCC32)C1 (stereo not drawn)
Second: CC(=O)OC1CC2C3CC=C4CC(O)CCC4(C)C3CCC2(C)C1C(C)C1CCC(C)CN1 (stereo not drawn)
The melting point of the first is lower: 175 °C for the first, 210 °C for the second.

Compared with `Nc1ccc(F)c(C(=O)O)c1`, `O=C(O)Cc1ccc(F)c(Cl)c1` is lower in melting point: 191 °C for the first, 57 °C for the second.

First: N#Cc1cccc2ccsc12
Second: COc1ccc2c(OC)cccc2c1
The melting point of the first is higher: 67.5 to 72.5 °C for the first, 58.5 °C for the second.

Compared with `CC(Cc1ccccc1)NC(C#N)c1ccccc1` (stereo not drawn), `Br/C(=C(/Br)c1ccccc1)c1ccccc1` is higher in melting point: 85 °C for the first, 228 °C for the second.

First: OCC1CCN(c2ncccn2)CC1
Second: OCC1CCC(n2cnc3c(O)ncnc32)O1 (stereo not drawn)
The melting point of the first is lower: 52 to 54 °C for the first, 175 °C for the second.

Compared with `SC1=NC2(CCCCC2)NN1c1ccccc1`, `O=C1NC(=O)C2(CCCCC2)N1` is higher in melting point: 146 to 149 °C for the first, 218 to 220 °C for the second.

First: NC(=O)c1cc(Cl)ccc1N
Second: NC(=O)c1cc(Cl)cc(Cl)c1N
The melting point of the first is higher: 171 °C for the first, 162 °C for the second.

Going from `CC12CCC(C(O)C(C(c3ccccc3)C3C(=O)C4(C)CCC(C3O)C4(C)C)C1=O)C2(C)C` (stereo not drawn) to `CC1CCC(C)(COC(=S)Nc2ccccc2)C1(C)C` (stereo not drawn), the melting point falls from 149 °C to 101 °C.

Compared with `Cc1cc(C)c(C2(C)CC(C(=NO)c3cc4ccccc4o3)C2)c(C)c1` (stereo not drawn), `Cc1nc2cc(-c3ccccc3)ccc2o1` is lower in melting point: 189 to 190 °C for the first, 63 °C for the second.

Going from `CN(CCO)c1nc2c(c(=O)n(C)c(=O)n2C)n1C` to `CCCCc1c(C)nc(N(C)C)nc1O`, the melting point falls from 105 °C to 102 °C.

Compared with `COc1ccc(OC)c(S(=O)(=O)Cl)c1`, `COc1ccc(N=C=S)cc1OC` is lower in melting point: 115 to 116 °C for the first, 48 °C for the second.

First: COc1nccnc1N(C(C)=O)S(=O)(=O)c1ccc(N)cc1
Second: Cc1c(S(=O)(=O)c2ccc(Cl)cc2)csc1C(=O)Cl
The melting point of the first is higher: 199 °C for the first, 131 to 132 °C for the second.

First: N#CC(=Cc1ccc(O)cc1)C(=O)O
Second: CC(=O)NC(=O)c1ccccc1O
The melting point of the first is higher: 250 to 253 °C for the first, 148 °C for the second.

Compared with `NS(=O)(=O)c1cc(Cl)c(Cl)cc1Cl`, `NS(=O)(=O)c1cc2c(cc1Cl)NC(C1CC3C=CC1C3)NS2(=O)=O` (stereo not drawn) is higher in melting point: 189 °C for the first, 234 °C for the second.

First: NC(=NO)c1ccc(Oc2ccc(F)cc2F)c([N+](=O)[O-])c1
Second: COC(=O)c1sccc1Oc1ccc(Cl)cc1[N+](=O)[O-]
The melting point of the first is higher: 164 to 167 °C for the first, 125 to 128 °C for the second.

First: NC(=O)C1CC1(Cl)Cl (stereo not drawn)
Second: NC(=O)C1CO1 (stereo not drawn)
The melting point of the first is higher: 148 to 149 °C for the first, 33 °C for the second.

Compared with `Cc1cccc(N/N=C2/C(=O)N(c3ccccc3)N=C2C(F)(F)F)c1C`, `CC(C)Oc1cccc(NC(=O)c2ccccc2C(F)(F)F)c1` is lower in melting point: 136 °C for the first, 105 °C for the second.

First: OCc1ccccc1O[C@@H]1O[C@H](CO)[C@@H](O)[C@H](O)[C@H]1O
Second: OCC1OC(OCC2OC(O)C(O)C(O)C2O)C(O)C(O)C1O (stereo not drawn)
The melting point of the first is higher: 198 to 200 °C for the first, 86 °C for the second.

Going from `CCOC(=O)c1c(SC)nn(C(=O)c2ccccc2)c1N` to `CCOC(=O)C(=O)C(C#N)c1ccccc1` (stereo not drawn), the melting point rises from 95 °C to 127 °C.

First: OCc1c(F)ccc(F)c1F
Second: O=C(Cl)c1csc(-c2ccc(C(F)(F)F)cc2)n1
The melting point of the first is lower: 46 °C for the first, 96 to 98 °C for the second.

First: O=C1NC2CCCC12 (stereo not drawn)
Second: O=C1NC2C=CC1C2 (single isomer, unassigned; (-))
The melting point of the first is lower: 45 to 50 °C for the first, 92 to 100 °C for the second.

Going from `O=NN(CCCl)C(=O)NC1CCCCC1` to `BrCCC1CCCCC1`, the melting point falls from 90 °C to -57 °C.

First: CC(=O)/C(=N\Nc1ccc([N+](=O)[O-])cc1)C(=O)C(F)(F)F
Second: O=C(c1ccc([N+](=O)[O-])cc1)c1noc(-c2ccc(Br)cc2)c1S(=O)(=O)c1ccccc1
The melting point of the first is lower: 140 °C for the first, 178 °C for the second.

First: COC1OC(=O)c2ccccc21 (stereo not drawn)
Second: Cc1oc(-c2ccccc2)cc1C(=O)O
The melting point of the first is lower: 43.7 to 44.4 °C for the first, 183 °C for the second.

First: COc1ccccc1/C=C(\C(N)=O)c1nc2ccccc2s1
Second: COc1ccc(C2Nn3c(nnc3-c3ccccc3OC)S2)cc1 (stereo not drawn)
The melting point of the first is lower: 174 °C for the first, 203 to 204 °C for the second.

First: COc1cc2nc(N3CCN(C(=O)C4CCCO4)CC3)nc(N)c2cc1OC (stereo not drawn)
Second: COc1cc2c(cc1O)C=NCC2
The melting point of the first is higher: 273 °C for the first, 187 to 191 °C for the second.

First: CC1=CCC(C(C)(C)O)CC1 (stereo not drawn)
Second: CC12CCC(C(=O)C1)C2(C)C (stereo not drawn)
The melting point of the first is lower: 40.5 °C for the first, 186 °C for the second.

Compared with `O=Cc1cc(F)cc2c1OCOC2`, `NC(=S)C1=Cc2ccccc2OC1` is higher in melting point: 113 to 114 °C for the first, 172 to 174 °C for the second.

Compared with `O=C(N[C@@H](C(=O)O)c1ccccc1)OCC(Cl)(Cl)Cl`, `N[C@@H](CCCCNC(=O)c1ccccc1)C(=O)O` is higher in melting point: 141 to 142 °C for the first, 251 to 256 °C for the second.

First: O=C1Cc2cccc(Br)c21
Second: Clc1ccc(I)cc1Cl
The melting point of the first is higher: 81.5 to 83 °C for the first, 30 °C for the second.

First: CC1=C(C(=O)OCc2ccccc2)C(c2ccco2)NC(=O)N1 (stereo not drawn)
Second: Cc1ccc(C(=O)C=Cc2ccc(-c3ccccc3)o2)o1
The melting point of the first is higher: 195 °C for the first, 122 to 123 °C for the second.

Compared with `CCN1C(=O)CCC1=O`, `CCC1(CC)C(=O)C=CNC1=O` is higher in melting point: 26 °C for the first, 90.7 °C for the second.

First: CC(=O)N1CCC(C(=O)Cl)CC1
Second: O=C(O)C1CCC(C(F)(F)F)CC1 (stereo not drawn)
The melting point of the first is higher: 132 °C for the first, 63 to 65 °C for the second.

Compared with `CN(C)c1ccc(N=C=O)cc1`, `CC(=O)N(C)c1ccccc1` is higher in melting point: 38 °C for the first, 103 °C for the second.

First: Cc1cc(O)c(C(C)C)cc1SC#N
Second: CSc1nc2nc(C)cc(C)n2n1
The melting point of the first is lower: 103 to 105 °C for the first, 156 to 157 °C for the second.

Compared with `NCC(=O)NO`, `O=C(O)/C=C/C=C/C(=O)O` is higher in melting point: 156 °C for the first, 301 °C for the second.

Compared with `Nc1cnccc1Cl`, `NCCOc1ccccc1Cl` is lower in melting point: 61 °C for the first, 40 °C for the second.

First: CSc1nsc(SC)c1C(N)=O
Second: Cc1cccnc1C(N)=S
The melting point of the first is higher: 214 to 216 °C for the first, 120 °C for the second.

First: c1cc(CCc2ccncc2)ccn1
Second: Fc1ccc(-c2cc3ccccc3[nH]2)cc1
The melting point of the first is lower: 107 to 113 °C for the first, 190 to 192 °C for the second.

First: FC(F)(F)c1cnc(S)c(Cl)c1
Second: Nc1ncc(C(F)(F)F)cc1Br
The melting point of the first is higher: 145 to 149 °C for the first, 100 °C for the second.

First: CCN(CC)C(=O)SCc1ccc(Cl)cc1
Second: COc1ccc(NC(=S)NNC(=O)c2nn(-c3ccccc3)nc2C)cc1
The melting point of the first is lower: 3.3 °C for the first, 206 to 207 °C for the second.

First: NC(=NO)c1ccccc1
Second: O=C(CCCN1CCC(n2c(=S)[nH]c3ccccc32)CC1)c1ccc(F)cc1
The melting point of the first is lower: 75 to 77 °C for the first, 202 °C for the second.

First: O=C1C(=O)C(Cl)=C(Cl)C(Cl)=C1Cl
Second: S=C(NN=Cc1c(-c2ccc(Cl)cc2)[nH]c2ccccc12)Nc1ccc(Cl)cc1
The melting point of the first is lower: 125 to 129 °C for the first, 215 to 217 °C for the second.

First: O=C1CCCCCCCN1
Second: COc1ccc(C(=O)C2=NOC3C(=O)N(c4ccc(F)cc4)C(=O)C23)cc1 (stereo not drawn)
The melting point of the first is lower: 78 °C for the first, 141 °C for the second.

First: CCCCCCCCOC(=O)CCCCC
Second: OCCCCCCCCCCl
The melting point of the first is lower: -28 °C for the first, 28 °C for the second.

Compared with `COc1ccc(C(C(=O)NCc2ccccc2)N(Cc2ccc(C)o2)C(=O)CNC(=O)OC(C)(C)C)cc1OC` (stereo not drawn), `Nc1ccc2c(c1)C(=O)OC21c2ccc(O)cc2Oc2cc(O)ccc21` is higher in melting point: 177 °C for the first, 223 °C for the second.

First: CCCCC(O)C(O)CO (stereo not drawn)
Second: O=C(Nc1c(Cl)cc(Cl)cc1Cl)C(F)(F)C(F)(F)C(F)(F)C(F)(F)C(F)(F)C(F)(F)C(F)(F)C(F)(F)F
The melting point of the first is lower: 92 to 97 °C for the first, 115 °C for the second.
